The text below walks through data of PMC2771346 (Molecular microbiology, 2009).

The Ki is a measure of affinity in units of concentration, obtained from inhibition or displacement. High values mean a looser hold on the target, low ones a stronger hold on the target.

In this experiment the target is ObgE (Escherichia coli, UniProt P42641). The experiment can be described thus: inhibition of single-turnover GTP hydrolysis, TLC of gamma-32P-GTP. Type of experiment: biochemical.
Chain of ObgE (P42641 whole entry): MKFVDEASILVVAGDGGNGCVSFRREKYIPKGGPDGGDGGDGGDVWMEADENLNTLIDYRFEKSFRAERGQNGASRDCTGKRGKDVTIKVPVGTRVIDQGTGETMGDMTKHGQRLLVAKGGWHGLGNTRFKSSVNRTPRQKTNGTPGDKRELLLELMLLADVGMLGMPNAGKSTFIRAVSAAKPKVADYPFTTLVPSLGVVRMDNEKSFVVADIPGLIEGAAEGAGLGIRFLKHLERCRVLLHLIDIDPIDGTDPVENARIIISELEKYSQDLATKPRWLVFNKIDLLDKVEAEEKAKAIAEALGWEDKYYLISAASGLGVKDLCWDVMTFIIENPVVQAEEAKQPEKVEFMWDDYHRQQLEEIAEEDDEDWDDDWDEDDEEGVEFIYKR

As to `Nc1nc2c(ncn2[C@@H]2O[C@H](COP(=O)(O)OP(=O)(O)O)[C@@H](O)[C@H]2O)c(=O)[nH]1` [GDP], the affinity corresponds to a Ki of 1.6 ± 0.4 µM.
